How the values were obtained:
Format in all cases: in vivo
[1] = tested on: Echinochloa crus-galli (ECHCG); experiment: Herbicidal pre-emergence action, section A (Table A3); conditions: visual grading after ca. 3 weeks vs untreated controls
Text: (§1) Seeds of mono- and dicotyledonous weed plants were sown in plastic pots (double sowings with one species of mono- and one species of dicotyledonous weed plants per pot), in sandy loam, and covered with soil. The compounds according to the invention, formulated in the form of wettable powders (WP) or as emulsifiable concentrates (EC), were applied to the surface of the covering soil as aqueous suspension or emulsion, with the addition of 0.5% of an additive, at an application rate of 600 l of water per hectare (converted). Following treatment, the pots were placed in a greenhouse and kept under optimum growth conditions for the test plants. The visual grading of the damage to the test plants was carried out after ca. 3 weeks in comparison to untreated controls (herbicidal effect in percent (%): 100% effect=plants have died off, 0% effect=as control plants).

Kochia scoparia (KCHSC) [2] = experiment: Herbicidal pre-emergence action, section A (Table A4); conditions: visual grading after ca. 3 weeks vs untreated controls
Text: as §1

Lolium rigidum (LOLRI) = experiment: Herbicidal pre-emergence action, section A (Table A5); conditions: application rate 1280 g/ha, visual grading after ca. 3 weeks vs untreated controls
Text: as §1

[3] = tested on: Matricaria inodora (MATIN); experiment: Herbicidal pre-emergence action, section A (Table A6); conditions: application rate 1280 g/ha; visual grading after ca. 3 weeks vs untreated controls
Text: as §1

Poa annua (POAAN) [4] = experiment: Herbicidal pre-emergence action, section A (Table A7); conditions: application rate 1280 g/ha, visual grading after ca. 3 weeks vs untreated controls
Text: as §1

Setaria viridis (SETVI) = experiment: Herbicidal pre-emergence action, section A (Table A8)
Text: as §1

Stellaria media (STEME) [5] = experiment: Herbicidal pre-emergence action, section A (Table A9); conditions: application rate 1280 g/ha
Text: as §1

[6] = tested on: Amaranthus retroflexus (AMARE); experiment: Herbicidal pre-emergence action, section A (Table A11); conditions: application rate 320 g/ha
Text: as §1

[7] = tested on: Digitaria sanguinalis (DIGSA); experiment: Herbicidal pre-emergence action, section A (Table A12); conditions: application rate 1280 g/ha
Text: as §1

[8] = tested on: Abutilon theophrasti (ABUTH); experiment: Herbicidal post-emergence action, section B (Table B1); conditions: application rate 1280 g/ha, rated visually after about 3 weeks
Description: (§2) Seeds of mono- and dicotyledonous weed plants were placed in plastic pots in sandy loam soil (doubly sown with in each case one species of mono- or dicotyledonous weed plants per pot), covered with soil and cultivated in a greenhouse under controlled growth conditions. 2 to 3 weeks after sowing, the test plants were treated at the one-leaf stage. The compounds of the invention, formulated in the form of wettable powders (WP) or as emulsion concentrates (EC), were applied onto the green parts of the plants as aqueous suspension or emulsion with addition of 0.5% additive at a water application rate of 600 liters per hectare (converted). After the test plants had been kept in the greenhouse under optimum growth conditions for about 3 weeks, the activity of the preparations was rated visually in comparison to untreated controls. For example, 100% activity=the plants have died, 0% activity=like control plants.

Kochia scoparia (KCHSC) [9] = experiment: Herbicidal post-emergence action, section B (Table B4); conditions: visual rating about 3 weeks after treatment vs untreated controls
Description: as §2

Stellaria media (STEME) [10] = experiment: Herbicidal post-emergence action, section B (Table B9); conditions: application rate 1280 g/ha, visual rating about 3 weeks after treatment vs untreated controls
Description: as §2

[11] = tested on: Amaranthus retroflexus (AMARE); experiment: Herbicidal post-emergence action, section B (Table B11); conditions: visual rating about 3 weeks after treatment vs untreated controls
Description: as §2

Veronica persica (VERPE) [12] = experiment: Herbicidal pre-emergence action, section A (Table A10); conditions: Veronica persica, 504 h, application rate 1280 g/ha, read-out: pre-emergence activity against VERPE in %
Text: as §1

[13] = tested on: Echinochloa crus-galli (ECHCG); experiment: Herbicidal post-emergence action, section B (Table B3); conditions: Echinochloa crus-galli, 504 h, application rate 1280 g/ha, rated visually after about 3 weeks, read-out: post-emergence activity against ECHCG in %
Description: as §2

Poa annua (POAAN) [14] = experiment: Herbicidal post-emergence action, section B (Table B7); conditions: Poa annua, post-emergence, 504 h; application rate 1280 g/ha; visual rating about 3 weeks after treatment vs untreated controls; read-out: post-emergence activity against POAAN in %
Description: as §2

Veronica persica (VERPE) [15] = experiment: Herbicidal post-emergence action, section B (Table B10); conditions: Veronica persica, post-emergence, 504 h; application rate 1280 g/ha; visual rating about 3 weeks after treatment vs untreated controls; read-out: post-emergence activity against VERPE in %
Description: as §2

## Cc1cccc(F)c1-c1nc2c(cc1Br)SCN2 [Example I-032]
[1]; application rate 320 g/ha
  pre-emergence activity against ECHCG in %: 100%
Kochia scoparia (KCHSC) [2]; application rate 1280 g/ha
  pre-emergence activity against KCHSC in %: 90%
Lolium rigidum (LOLRI)
  pre-emergence activity against LOLRI in %: 100%
[3]
  pre-emergence activity against MATIN in %: 90%
Poa annua (POAAN) [4]
  pre-emergence activity against POAAN in %: 100%
Setaria viridis (SETVI); application rate 320 g/ha
  pre-emergence activity against SETVI in %: 100%
Stellaria media (STEME) [5]
  pre-emergence activity against STEME in %: 100%
[6]
  pre-emergence activity against AMARE in %: 90%
[7]
  pre-emergence activity against DIGSA in %: 100%
[8]
  post-emergence activity against ABUTH in %: 90%
Kochia scoparia (KCHSC) [9]; application rate 1280 g/ha
  post-emergence activity against KCHSC in %: 90%
Stellaria media (STEME) [10]
  post-emergence activity against STEME in %: 90%
[11]; application rate 1280 g/ha
  post-emergence activity against AMARE in %: 90%

## CCCC(=O)N1CSc2cc(Br)c(-c3ccccc3Cl)nc21 [Example I-042, 1-[6-bromo-5-(2-chlorophenyl)[1,3]thiazolo[4,5-b]pyridin-3(2H)-yl]butan-1-one]
[1]; Echinochloa crus-galli, pre-emergence, 504 h, application rate 1280 g/ha, read-out: pre-emergence activity against ECHCG in %
  pest or weed control at 1280 g/ha: 100%
Kochia scoparia (KCHSC) [2]; Bassia scoparia, pre-emergence, 504 h, application rate 320 g/ha, read-out: pre-emergence activity against KCHSC in %
  pest or weed control at 320 g/ha: 90%
Lolium rigidum (LOLRI); Lolium rigidum, pre-emergence, 504 h, read-out: pre-emergence activity against LOLRI in %
  pest or weed control at 1280 g/ha: 90%
Poa annua (POAAN) [4]; Poa annua, pre-emergence, 504 h, read-out: pre-emergence activity against POAAN in %
  pest or weed control at 1280 g/ha: 100%
Setaria viridis (SETVI); Setaria viridis, 504 h, application rate 1280 g/ha, read-out: pre-emergence activity against SETVI in %
  pest or weed control at 1280 g/ha: 100%
Stellaria media (STEME) [5]; Stellaria media, 504 h, read-out: pre-emergence activity against STEME in %
  pest or weed control at 1280 g/ha: 90%
Veronica persica (VERPE) [12]
  pest or weed control at 1280 g/ha: 90%
[6]; Amaranthus retroflexus, 504 h, read-out: pre-emergence activity against AMARE in %
  pest or weed control at 320 g/ha: 90%
[7]; Digitaria sanguinalis, 504 h, read-out: pre-emergence activity against DIGSA in %
  pest or weed control at 1280 g/ha: 100%
[8]; Abutilon theophrasti, 504 h, read-out: post-emergence activity against ABUTH in %
  pest or weed control at 1280 g/ha: 90%
[13]
  pest or weed control at 1280 g/ha: 90%
Kochia scoparia (KCHSC) [9]; Bassia scoparia, post-emergence, 504 h, application rate 320 g/ha, read-out: post-emergence activity against KCHSC in %
  pest or weed control at 320 g/ha: 90%
Poa annua (POAAN) [14]
  pest or weed control at 1280 g/ha: 90%
Stellaria media (STEME) [10]; Stellaria media, post-emergence, 504 h, read-out: post-emergence activity against STEME in %
  pest or weed control at 1280 g/ha: 90%
Veronica persica (VERPE) [15]
  pest or weed control at 1280 g/ha: 90%
[11]; Amaranthus retroflexus, post-emergence, 504 h, application rate 320 g/ha, read-out: post-emergence activity against AMARE in %
  pest or weed control at 320 g/ha: 90%
